The values below come from patent publication US9834564B2, “Substituted quinolines as PDE-10 inhibitors” (priority 2010, dated 2017).

Read-outs that look alike come from different tables or passages of the source. Bounds are passed on as bounds.

The target of this test is recombinant human PDE-10 enzyme (PDE-10A) (Homo sapiens (Human), UniProt Q9Y233). As to the kind of experiment: IMAP PDE Fluorescence Polarization assay, human PDE-10 inhibition (enzyme assay). In kind it is biochemical. On the procedure:
In one embodiment, the compounds provided herein were assayed for their ability to inhibit human PDE-10A. In one embodiment, the activities of the compounds were determined using the Molecular Devices IMAP PDE Fluorescence Polarization assay using recombinant human PDE-10 enzyme expressed in a baculoviral system. Briefly, 10 μL of a compound (0.2 nM-20 μM) was added to either a 96-well half area black plate or a 384-well black plate along with 10 μL of Fluorescein-labeled cAMP/cGMP substrate as per manufacturer's instructions and 10 μL of PDE enzyme (activity 0.1 U). Following a 40-minute incubation at 37° C., 60 μL of IMAP binding reagent was added. […] The data was analyzed using Prism Software (GraphPad Inc, San Diego, Calif.).
(In general: Fluorescence polarisation rises when a labelled molecule tumbles more slowly, as on binding a larger partner.)

[1] abbreviates: recombinant human PDE-10, fluorescein-labeled cAMP/cGMP substrate, 40 min at 37° C.

Sequence of recombinant human PDE-10 enzyme (PDE-10A) (Q9Y233 whole entry): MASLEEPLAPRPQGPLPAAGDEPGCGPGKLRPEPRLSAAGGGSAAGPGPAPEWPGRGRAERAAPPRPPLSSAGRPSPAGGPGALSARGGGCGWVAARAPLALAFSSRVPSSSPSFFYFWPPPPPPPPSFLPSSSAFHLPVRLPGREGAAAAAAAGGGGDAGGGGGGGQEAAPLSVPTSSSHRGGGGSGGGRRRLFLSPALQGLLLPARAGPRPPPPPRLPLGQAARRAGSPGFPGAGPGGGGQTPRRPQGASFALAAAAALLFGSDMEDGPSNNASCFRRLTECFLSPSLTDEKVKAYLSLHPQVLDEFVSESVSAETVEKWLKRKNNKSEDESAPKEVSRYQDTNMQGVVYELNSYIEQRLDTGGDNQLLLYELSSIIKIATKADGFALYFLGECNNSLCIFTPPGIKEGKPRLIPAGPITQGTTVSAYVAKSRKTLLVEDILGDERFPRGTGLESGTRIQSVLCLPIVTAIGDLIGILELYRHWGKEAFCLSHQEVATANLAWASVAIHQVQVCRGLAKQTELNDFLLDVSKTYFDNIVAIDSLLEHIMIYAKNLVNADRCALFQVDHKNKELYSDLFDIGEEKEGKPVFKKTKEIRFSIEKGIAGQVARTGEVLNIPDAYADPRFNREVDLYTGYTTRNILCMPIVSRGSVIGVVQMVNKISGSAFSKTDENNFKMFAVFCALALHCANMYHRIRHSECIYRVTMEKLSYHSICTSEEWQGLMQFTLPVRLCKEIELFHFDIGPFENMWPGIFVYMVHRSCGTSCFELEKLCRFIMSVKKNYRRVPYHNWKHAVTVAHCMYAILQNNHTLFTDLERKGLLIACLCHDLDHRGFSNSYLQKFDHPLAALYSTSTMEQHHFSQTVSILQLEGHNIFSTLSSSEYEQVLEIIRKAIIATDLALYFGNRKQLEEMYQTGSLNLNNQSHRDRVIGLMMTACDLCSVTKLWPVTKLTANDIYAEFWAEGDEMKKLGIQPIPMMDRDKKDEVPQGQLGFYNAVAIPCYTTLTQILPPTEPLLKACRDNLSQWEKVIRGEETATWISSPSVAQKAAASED

The term IC50 denotes the midpoint of a concentration-inhibition curve. `Cc1ncc(C)c2nc(CCc3nc4c5cccnc5ccc4n3C)ccc12` [Compound 165]: the 50% inhibitory concentration (IC50) under setting [1] was less than 0.5 µM.

As for `Cc1cnc(C)c(CCc2nc(-c3ccccc3)cn2C)n1` [Compound 172], the half-maximal inhibitory concentration (IC50) under setting [1] is less than 0.5 µM.

On to `Cn1cc(-c2ccncc2)nc1CCc1cnc2ccccc2n1` [Compound 47], for which the IC50 under setting [1] was more than 10 µM.

In the case of `Cc1ncc(C)c2nc(CCc3nc4c(ccc5ncccc54)[nH]3)ccc12` [Compound 166], the half-maximal inhibitory concentration (IC50) under setting [1] was less than 0.5 µM.

As for `Cn1c(CCc2cnc3ccccc3n2)nc2ccc3ncccc3c21` [Compound 83], the IC50 under setting [1] was in the range of 1 to 10 µM.

As for `Cn1c(/C=C/c2nc(-c3ccccc3)c[nH]2)nc2ccccc2c1=O` [Compound 9], the IC50 is more than 10 µM.

Take `Cc1ncc(C)n2nc(CCc3ccc4ccncc4n3)nc12` [Compound 139]: under setting [1], the IC50 lay in the range of 1 to 10 µM.

For the compound `c1cnc2ccc(CCc3nc4c5cccnc5ccn4n3)nc2c1` [Compound 176], the IC50 under setting [1] was less than 0.5 µM.

On to `Cn1c(CCc2cnc3ccccc3n2)nc2c3ncccc3ccc21` [Compound 154], for which the half-maximal inhibitory concentration (IC50) under setting [1] is less than 0.5 µM.

For `Cc1ncc(CCc2nc(-c3cccnc3)cn2C)nc1C` [Compound 175], the IC50 under setting [1] was in the range of 1 to 10 µM.

Regarding `Cn1c(CCc2cnc3ccccc3n2)nc2ccccc21` [Compound 26], under setting [1], the half-inhibitory concentration (IC50) was in the range of 1 to 10 µM.

In the case of `Cn1nc(-c2ccccc2)cc1CCc1nc2ccccc2c(=O)[nH]1` [Compound 15], the IC50 under setting [1] fell in the range of 1 to 10 µM.

With `c1ccc(-c2c[nH]c(CCc3ccc4ccccc4c3)n2)cc1` [Compound 35], under setting [1], the half-maximal inhibitory concentration (IC50) is more than 10 µM.

Take `c1ccc(-c2csc(CCc3cnc4ccccc4n3)n2)cc1` [Compound 108]: the half-maximal inhibitory concentration (IC50) under setting [1] is less than 0.5 µM.

Consider `C(=C\c1cccs1)/c1nc(-c2ccccc2)c[nH]1` [Compound 28], for which, under setting [1], the half-maximal inhibitory concentration (IC50) was more than 10 µM.

Turning to `Oc1cccc2nc(CCc3cnc4ccccc4n3)[nH]c12` [Compound 99], the IC50 under setting [1] was 0.5 to 1 µM.

For `FC(F)(F)c1cnc2nc(CCc3nc4c5cccnc5ccn4n3)ccc2c1` [Compound 182], the IC50 under setting [1] is more than 10 µM.

Consider `Cn1c(CCc2cccc(-c3cccnc3)n2)nc2c3cccnc3ccc21` [Compound 207], for which the IC50 under setting [1] is 1 to 10 µM.

Take `Cc1c(CCc2ccc3cc(C(F)(F)F)cnc3n2)nc2c3cccnc3ccn12` [Compound 185]: the IC50 under setting [1] is 0.5 to 1 µM.

For `c1ccc2nc(CCc3nc4ccccc4o3)cnc2c1` [Compound 107], under setting [1], the IC50 was more than 10 µM.

In the case of `CC(C)(C)c1ccc2nc(CCc3cnc4ccccc4n3)[nH]c2c1` [Compound 100], under setting [1], the IC50 is 1 to 10 µM.

On to `O=c1[nH]c(/C=C/c2ccc(-c3ccccc3)s2)nc2ccccc12` [Compound 38], for which the IC50 under setting [1] is more than 10 µM.

In the case of `c1cnc2c(c1)ccn1nc(CCc3cnc4ccccc4n3)nc21` [Compound 157], under setting [1], the IC50 was less than 0.5 µM.

Consider `Cc1ncc(C)n2nc(CCc3ccc4ccc5c(c4n3)NCCC5)nc12` [Compound 137], for which the half-inhibitory concentration (IC50) under setting [1] was less than 0.5 µM.

For `Cc1ncc(C)n2nc(CCc3ccc4ccc5ccccc5c4n3)nc12` [Compound 130], under setting [1], the IC50 lay within 0.5 to 1 µM.

Take `Cn1c(CCc2ccc3cccnc3n2)nc2c3cccnc3ccc21` [Compound 203]: the IC50 under setting [1] was less than 0.5 µM.

As to `Cn1c(CCc2cnc3ccccc3n2)nc2c3cccnc3ccc21` [Compound 84], the 50% inhibitory concentration (IC50) under setting [1] is less than 0.5 µM.

For `c1ccc2nc(CCc3cn4ccccc4n3)cnc2c1` [Compound 119], under setting [1], the concentration for half-maximal inhibition (IC50) lay in the range of 1 to 10 µM.

Turning to `O=c1[nH]c(CCc2nc(-c3ccccc3)c(-c3ccccc3)o2)nc2ccccc12` [Compound 111], under setting [1], the 50% inhibitory concentration (IC50) lay in the range of 1 to 10 µM.

As for `Cc1ccc2ncc(CCc3nc4c(C)ncc(C)n4n3)nc2c1C` [Compound 135], under setting [1], the 50% inhibitory concentration (IC50) is less than 0.5 µM.

For `Cc1ccc2nc(CCc3cn4ccc5ncccc5c4n3)ccc2n1` [Compound 200], the half-inhibitory concentration (IC50) under setting [1] was less than 0.5 µM.

With `c1ccc2nc(CCc3nc4c(ccc5ncccc54)[nH]3)ccc2c1` [Compound 86], the concentration for half-maximal inhibition (IC50) under setting [1] is less than 0.5 µM.

With `Cn1c(CCc2nc3ccccc3c(=O)[nH]2)nc2ccccc21` [Compound 24], the 50% inhibitory concentration (IC50) under setting [1] was more than 10 µM.

For `C(=C\c1nc(-c2ccccc2)c[nH]1)/c1ccccn1` [Compound 32], the IC50 under setting [1] is more than 10 µM.

Regarding `Cc1ncc(C)n2nc(CCc3nc4ccccc4cc3F)nc12` [Compound 127], the IC50 under setting [1] was less than 0.5 µM.

Turning to `Cn1c(CCc2ccc3ccccc3n2)nc2ccc3ccccc3c21` [Compound 91], the IC50 under setting [1] lay within 1 to 10 µM.

With `O=c1[nH]c(/C=C/c2nc3ccccc3[nH]2)nc2ccccc12` [Compound 22], under setting [1], the IC50 was more than 10 µM.

Regarding `O=c1[nH]c(CCc2nc(-c3ccc(-c4ccccc4)cc3)c[nH]2)nc2ccccc12` [Compound 63], the IC50 under setting [1] was more than 10 µM.

As to `Cc1ccc(-c2cn(C)c(CCc3ccc4ncccc4n3)n2)cn1` [Compound 174], under setting [1], the concentration for half-maximal inhibition (IC50) is 0.5 to 1 µM.

For `Cn1cc(-c2ccncc2)nc1CCc1ccc2ccccc2n1` [Compound 41], the IC50 under setting [1] was 1 to 10 µM.

For the compound `c1ccc(-c2c[nH]c(CCc3ncc4ccccc4n3)n2)cc1` [Compound 13], the IC50 under setting [1] is less than 0.5 µM.

As to `c1cnc2c(c1)ccc1ccc(CCc3cnc4ccccc4n3)nc12` [Compound 158], the half-maximal inhibitory concentration (IC50) under setting [1] is less than 0.5 µM.

Take `c1ccc2nc(CCc3cn4ccc5ncccc5c4n3)cnc2c1` [Compound 189]: the 50% inhibitory concentration (IC50) under setting [1] was less than 0.5 µM.

With `Cn1c(CCc2cnc3ccccc3n2)nc2c3c(ccc21)NCCC3` [Compound 192], under setting [1], the IC50 is less than 0.5 µM.

Regarding `Cc1cc2c(nc(CCc3ccc4ccccc4n3)n2C)c2cccnc12` [Compound 169], the IC50 under setting [1] was more than 10 µM.

As for `c1ccc(-c2cccc(CCc3cnc4ccccc4n3)n2)cc1` [Compound 81], the IC50 under setting [1] is more than 10 µM.

For `c1ccc2nc(CCc3nc4c5cccnc5ccn4n3)cnc2c1` [Compound 188], under setting [1], the IC50 is less than 0.5 µM.

Turning to `Cc1ncc(C)n2nc(CCc3ccc4c(F)ccc(F)c4n3)nc12` [Compound 129], the IC50 under setting [1] lay in the range of 0.5 to 1 µM.

As for `Cc1ncc(C)n2nc(CCc3ccc4ncccc4n3)nc12` [Compound 140], the IC50 under setting [1] is less than 0.5 µM.

For `Cn1c(CCc2cnc3c(C(F)(F)F)ccc(C(F)(F)F)c3n2)nc2c3cccnc3ccc21` [Compound 143], under setting [1], the IC50 is less than 0.5 µM.

As for `Cn1c(CCc2ccc3ccc4cccnc4c3n2)nc2c3cccnc3ccc21` [Compound 171], the half-maximal inhibitory concentration (IC50) under setting [1] is less than 0.5 µM.

As for `Cc1c(CCc2ccc3ncccc3n2)nc2c3cccnc3ccn12` [Compound 201], the concentration for half-maximal inhibition (IC50) under setting [1] was less than 0.5 µM.

For the compound `c1ccc2nc(CCc3nc4c5cccnc5ccn4n3)ccc2c1` [Compound 147], under setting [1], the half-maximal inhibitory concentration (IC50) is less than 0.5 µM.

Take `Cc1ccc2ccc(CCc3nc4c5cccnc5ccn4c3C)nc2n1` [Compound 198]: under setting [1], the half-inhibitory concentration (IC50) was 0.5 to 1 µM.

Turning to `Cc1ccnc2ccc(CCc3nc4c5cccnc5ccn4c3C)nc12` [Compound 187], under setting [1], the IC50 was less than 0.5 µM.

In the case of `Cn1c(CCc2ccc3cnccc3n2)nc2c3ncccc3ccc21` [Compound 163], under setting [1], the half-inhibitory concentration (IC50) was less than 0.5 µM.

On to `Cn1c(CCc2nc(C(F)(F)F)cc(C(F)(F)F)n2)nc2c3cccnc3ccc21` [Compound 194], for which the 50% inhibitory concentration (IC50) under setting [1] is less than 0.5 µM.

Consider `Cn1c(CCc2nc(-c3ccccc3)c[nH]2)nc2ccccc2c1=O` [Compound 10], for which the IC50 under setting [1] lay in the range of 1 to 10 µM.

As for `Cc1ncc(C)c2nc(CCc3nc4c5cccnc5ccn4n3)ccc12` [Compound 167], the IC50 under setting [1] was less than 0.5 µM.

For the compound `c1ccc(-c2c[nH]c(CNc3cnc4ccccc4n3)n2)cc1` [Compound 121], the half-inhibitory concentration (IC50) under setting [1] was in the range of 1 to 10 µM.

With `c1ccc(-c2ncc(CCc3cnc4ccccc4n3)o2)cc1` [Compound 80], the IC50 under setting [1] is more than 10 µM.

For the compound `c1cnc2nc(CCc3cn4ccc5ncccc5c4n3)ccc2c1` [Compound 195], the concentration for half-maximal inhibition (IC50) under setting [1] fell in the range of 1 to 10 µM.

For the compound `O=c1[nH]c(CCc2nc(-c3ccc(Cl)cc3)c[nH]2)nc2ccccc12` [Compound 54], the IC50 under setting [1] was 1 to 10 µM.

For the compound `Cn1c(CCc2cnc3cccc(Cl)c3n2)nc2c3cccnc3ccc21` [Compound 191], the half-maximal inhibitory concentration (IC50) under setting [1] was less than 0.5 µM.

As for `FC(F)(F)Oc1ccc2[nH]c(CCc3cnc4ccccc4n3)nc2c1` [Compound 105], under setting [1], the 50% inhibitory concentration (IC50) lay in the range of 1 to 10 µM.

On to `Cn1cc(-c2ccccc2)nc1CCc1cccc(-n2ccnc2)n1` [Compound 150], for which, under setting [1], the IC50 lay in the range of 1 to 10 µM.

Turning to `Cc1c(CCc2cnc3ccccc3n2)nc2c3cccnc3ccn12` [Compound 190], the 50% inhibitory concentration (IC50) under setting [1] is less than 0.5 µM.

As to `FC(F)(F)c1ccc2[nH]c(CCc3cnc4ccccc4n3)nc2c1` [Compound 104], under setting [1], the IC50 lay in the range of 1 to 10 µM.

For `c1ccc2nc(CCc3nc(-c4ccncc4)c[nH]3)cnc2c1` [Compound 74], the IC50 under setting [1] fell in the range of 1 to 10 µM.

For `Cc1ccnc2ccc(CCc3nc4c5cccnc5ccc4n3C)nc12` [Compound 186], the concentration for half-maximal inhibition (IC50) under setting [1] is less than 0.5 µM.

On to `Cn1c(CCc2cccc(-c3ccccn3)n2)nc2c3cccnc3ccc21` [Compound 206], for which the IC50 under setting [1] fell in the range of 0.5 to 1 µM.

`Cc1ncc(C)n2nc(CCc3ccc4ccc5cccnc5c4n3)nc12` [Compound 133]: under setting [1], the IC50 is less than 0.5 µM.

In the case of `Cn1c(/C=C/c2nc3ccccc3c(=O)[nH]2)nc2ccccc21` [Compound 23], under setting [1], the half-maximal inhibitory concentration (IC50) is 1 to 10 µM.

As to `O=c1[nH]c(CCc2ccc(-c3ccccc3)s2)nc2ccccc12` [Compound 37], the 50% inhibitory concentration (IC50) under setting [1] was more than 10 µM.

On to `Cc1nc2ccccc2nc1CCc1nc2ccccc2[nH]1` [Compound 106], for which, under setting [1], the half-inhibitory concentration (IC50) lay in the range of 0.5 to 1 µM.

Regarding `O=c1[nH]c(CCc2nc(-c3ccccc3)c[nH]2)nc2cc3ccccc3cc12` [Compound 6], the IC50 under setting [1] was more than 10 µM.

In the case of `c1ccc(-c2c[nH]c(CCc3cccs3)n2)cc1` [Compound 29], the IC50 under setting [1] was more than 10 µM.

`Fc1cc2[nH]c(CCc3cnc4ccccc4n3)nc2cc1Cl` [Compound 101]: under setting [1], the 50% inhibitory concentration (IC50) lay in the range of 0.5 to 1 µM.

In the case of `Cc1cnc2nc(CCc3nc4c5cccnc5ccn4c3C)ccc2c1` [Compound 184], the IC50 under setting [1] is less than 0.5 µM.

For the compound `Cn1cc(-c2ccccc2)nc1CCc1cccc(-c2ccncc2)n1` [Compound 152], the IC50 under setting [1] was 1 to 10 µM.

As for `Cc1ccc2nc(CCc3nc4c(C)ncc(C)n4n3)cnc2c1C` [Compound 136], the IC50 under setting [1] was less than 0.5 µM.
